Mortality data for three molecules are collected here from patent publication US7989394B2, “Substituted 1-(azolin-2-yl)-amino-2-aryl-1-hetaryl-ethane compounds” (BASF SE, priority 2006, dated 2011).

Molecules are shown by their SMILES. Bounds are passed on as bounds.

Usually mortality stands for the percentage killed.

Assay [1] concerns Cotton Aphid (Aphis gossypii). In words: Cotton aphid (Aphis gossypii) mortality on dipped cotton plants. The assay is classed as in vivo. Conditions: 120 h, cotton cotyledons dipped, aphid mortality after 5 days, read-out: mortality in comparison with untreated controls. As to the method:
I. Cotton Aphid (Aphis gossypii)
Cotton plants in the cotyledon stage (variety ‘Delta Pine’) are infested with approximately 100 laboratory-reared aphids by placing infested leaf sections on top of the test plants. The leaf sections are removed after 24 hours. The cotyledons of the intact plants are dipped into gradient solutions of the test compound. Aphid mortality on the treated plants, relative to mortality on check plants, is determined after 5 days.

The subject of assay [2] is Green Peach Aphid (Myzus persicae). The assay can be described thus: Green peach aphid (Myzus persicae) mortality on dipped pepper plants. The format is in vivo. Particulars: 120 h, pepper leaves dipped, aphid mortality after 5 days, read-out: mortality in comparison with untreated controls. As to the method: II. Green Peach Aphid (Myzus persicae)
Pepper plants in the 2nd leaf-pair stage (variety ‘California Wonder’) are infested with approximately 40 laboratory-reared aphids by placing infested leaf sections on top of the test plants. The leaf sections are removed after 24 hours. The leaves of the intact plants are dipped into gradient solutions of the test compound. Aphid mortality on the treated plants, relative to mortality on check plants, is determined after 5 days.

On to `Cc1cc(C)cc(CC(NC(=S)NCCO)c2cccs2)c1` (racemic) [Example 6, 1-[2-(3,5-Dimethyl-phenyl)-1-thien-2-yl-ethyl]-3-(2-hydroxy-ethyl)-thiourea], for which the mortality at 300 ppm in assay [1] and in assay [2] was > 70% throughout.
Take `Cc1cc(C)cc(CC(NC2=NCCS2)c2cccs2)c1` (racemic) [Example 22, (4,5-Dihydro-thiazol-2-yl)-[2-(3,5-dimethyl-phenyl)-1-thien-2-yl-ethyl]-amine]: the mortality at 300 ppm in assay [1] and in assay [2] was > 70% in each case.
As to `Cc1cc(C)cc(CC(NC2=NCCS2)c2ccco2)c1` (racemic) [Example 23, (4,5-Dihydro-thiazol-2-yl)-[2-(3,5-dimethyl-phenyl)-1-furan-2-yl-ethyl]-amine], the mortality at 300 ppm in assay [1] and in assay [2] was > 70% throughout.
